Test results: patent publication US7410974B2, “Halogenated Quinazolinyl nitrofurans as antibacterial agents” (Ulysses Pharmaceutical Products, Inc., priority 2003, dated 2008)
Converted amounts (≈) assume the structure as drawn. Where two headings read alike, the source gives them in different places.

Experiments:
[1] = system: S. epidermidis ATCC 12228; experiment: MIC broth microdilution (NCCLS); type: cell-based, Staphylococcus epidermidis
Protocol: (§1) Minimal Inhibitory Concentration (MIC) Determination. Bacteria (primary strain panel, TABLE 1). Susceptibility tests were performed following the recommendations from the National Committee for Clinical Standards (NCCLS). The MICs were determined by a broth microdilution technique using a final volume of 100 μl of cation-adjusted Mueller Hinton Broth (MHBCA) and a bacterial inoculum of 10^5-10^6 Colony Forming Units (CFU)/ml. The inocula were verified and precisely determined by applying 10-μl drops of 10-fold dilutions onto Triptic Soy Agar plates. The CFU were counted after an incubation of 24 h at 35° C. Any experiment showing an inoculum that was more or less than 10^5-10^6 CFU/ml was rejected. Control antibiotics and test compounds were prepared at a concentration equivalent to 2-fold the highest desired final concentration. Compounds were then diluted directly in the 96-well microtiter plates by serial 2-fold dilutions using a multichannel pipette. Microtiter plates were incubated during 24 h at 35° C. and growth was recorded by using a microtiterplate reader at 650 nm as well as by visual observation. The MIC was defined as the lowest concentration of compound yielding no visible growth. […] Fastidious bacteria. The medium used for Listeria monocytogenes, Neisseria meningitidis, and Campylobacter jejuni was MHBCA containing 2% laked horse blood. The medium used for Haemophilus influenzae and Branhamella (Moraxella) catarrhalis was HTM as recommended by the NCCLS. Cultures of these fastidious bacteria were incubated at 35° C. in a 5% CO2 atmosphere. […] The medium used for Bacteroides fragilis was Wilkins Chalgren broth and growth was allowed under an anaerobic atmosphere at 35° C. for 48 hours.

S. aureus ATCC 29213 = experiment: MIC broth microdilution (NCCLS); type: cell-based, Staphylococcus aureus
Protocol: as §1

E. faecium ATCC 35667 = experiment: MIC broth microdilution (NCCLS); type: cell-based, Enterococcus faecium
Protocol: as §1

E. coli ATCC 25922 = experiment: MIC broth microdilution (NCCLS); type: cell-based, Escherichia coli
Protocol: as §1

[2] = system: S. saprophyticus ATCC 15305; experiment: MIC broth microdilution (NCCLS); type: cell-based, Staphylococcus saprophyticus
Protocol: as §1

S. aureus MRSA COL = experiment: MIC broth microdilution (NCCLS); type: cell-based, Staphylococcus aureus
Protocol: as §1, with “hours. […]” for “hours.”

E. faecalis ATCC 29212 = experiment: MIC broth microdilution (NCCLS); type: cell-based, Enterococcus faecalis
Protocol: as §1

B. catarrhalis ATCC 8176 [3] = experiment: MIC broth microdilution (NCCLS), fastidious bacteria; type: cell-based, Branhamella (Moraxella) catarrhalis; details: Moraxella catarrhalis, ATCC8176, HTM, 5% CO2
Protocol: as §1

H. influenzae ATCC 49766 [4] = experiment: as above; type: cell-based; details: Haemophilus influenzae, ATCC49766, HTM, 5% CO2
Protocol: as §1

H. influenzae ATCC 49247 = experiment: as above; type: cell-based; details: Haemophilus influenzae, ATCC49247, HTM, 5% CO2
Protocol: as §1

B. catarrhalis ATCC 8176 [5] = experiment: Minimal Bactericidal Concentration (MBC); type: cell-based, Branhamella (Moraxella) catarrhalis; details: Moraxella catarrhalis, ATCC8176, 99.9% killing
Protocol: (§2) Minimal Bactericidal Concentration (MBC). After the microtiter plates were read for the determination of the MIC, a 10-μl sample of each clear well (at least 5 wells without visible growth) was applied onto TSA plates for viable counts determination.
(§3) Petri dishes were incubated at 35° C. for exactly 24 h and bacterial colonies were counted.

H. influenzae ATCC 49766 [6] = experiment: Minimal Bactericidal Concentration (MBC); type: cell-based; details: Haemophilus influenzae, ATCC49766, 99.9% killing
Protocol: as §2, §3

E. faecium VanA = experiment: MIC broth microdilution, antibiotic resistant strain panel; type: cell-based; details: Enterococcus faecium
Protocol: as §1
(§4) Finally, compounds were also tested against populations of various clinical strains (antibiotic resistant strain panel, TABLE 1).

S. typhimurium ATCC14028 = experiment: MIC broth microdilution (NCCLS); type: cell-based, Salmonella typhimurium; details: Salmonella enterica
Protocol: as §1

A. baumannii ATCC 19606 = experiment: MIC broth microdilution (NCCLS); type: cell-based, Acinetobacter baumannii
Protocol: as §1

[7] = system: Y. enterocolytica ATCC 23715; experiment: MIC broth microdilution (NCCLS); type: cell-based, Yersinia enterocolytica
Protocol: as §1

MRSA strain Sa212c = experiment: MIC broth microdilution, antibiotic resistant strain panel; type: cell-based, Staphylococcus aureus; details: multi-resistant MRSA strain Sa212c
Protocol: as §1, §4

MRSA strain Sa248c = experiment: as above; type: cell-based, Staphylococcus aureus; details: multi-resistant MRSA strain Sa248c
Protocol: as §1, §4

MRSA strain Sa224c = experiment: as above; type: cell-based, Staphylococcus aureus; details: multi-resistant MRSA strain Sa224c
Protocol: as §1, §4

MRSA strain Sa253c = experiment: as above; type: cell-based, Staphylococcus aureus; details: multi-resistant MRSA strain Sa253c
Protocol: as §1, §4

MRSA strain Sa220c = experiment: as above; type: cell-based, Staphylococcus aureus; details: multi-resistant MRSA strain Sa220c
Protocol: as §1, §4

MRSA strain Sa249c = experiment: as above; type: cell-based, Staphylococcus aureus; details: multi-resistant MRSA strain Sa249c
Protocol: as §1, §4

MRSA strain Sa228c = experiment: as above; type: cell-based, Staphylococcus aureus; details: multi-resistant MRSA strain Sa228c
Protocol: as §1, §4

MRSA strain Sa211c = experiment: as above; type: cell-based, Staphylococcus aureus; details: multi-resistant MRSA strain Sa211c
Protocol: as §1, §4

[8] = system: S. saprophyticus ATCC 15305; experiment: Minimal Bactericidal Concentration (MBC); type: cell-based; details: Staphylococcus saprophyticus, ATCC15305
Protocol: as §2, §3

MRSA strain Sa234c = experiment: MIC broth microdilution, antibiotic resistant strain panel; type: cell-based, Staphylococcus aureus; details: multi-resistant MRSA strain Sa234c
Protocol: as §1, §4

[9] = Staphylococcus epidermidis, ATCC12228, S. epidermidis ATCC 12228, read-out: MIC
[10] = Staphylococcus aureus, ATCC29213, S. aureus ATCC 29213, read-out: MIC
[11] = Enterococcus faecium, ATCC35667, E. faecium ATCC 35667, read-out: MIC
[12] = Escherichia coli, ATCC25922, E. coli ATCC 25922 (Reference), read-out: MIC
[13] = Staphylococcus saprophyticus, ATCC15305, S. saprophyticus ATCC 15305, read-out: MIC
[14] = Staphylococcus aureus, MRSA, S. aureus MRSA COL, read-out: MIC
[15] = Enterococcus faecalis, ATCC29212, E. faecalis ATCC 29212, read-out: MIC
[16] = multi-resistant E. faecium VanA, read-out: MIC
[17] = Staphylococcus aureus, read-out: MIC

CO/N=C(\C(=O)N[C@@H]1C(=O)N2C(C(=O)O)=C(CSc3nc(=O)c(=O)[nH]n3C)CS[C@H]12)c1csc(N)n1 [Ceftriaxone]
MIC [1, 9]: 1 µg/mL (≈ 1.8 µM)
MIC (S. aureus ATCC 29213; [10]): 2 µg/mL (≈ 3.61 µM)
MIC (E. faecium ATCC 35667; [11]): 64 µg/mL (≈ 115 µM)
MIC (E. coli ATCC 25922; [12]): 0.03 to 0.06 µg/mL (≈ 0.0541 to 0.108 µM)
MIC [2, 13]: 8 µg/mL (≈ 14.4 µM)
MIC (S. aureus MRSA COL; [14]): 512 µg/mL (≈ 923 µM)
MIC (E. faecalis ATCC 29212; [15]): 8 µg/mL (≈ 14.4 µM)

CC[C@H]1OC(=O)[C@H](C)[C@@H](O[C@H]2C[C@@](C)(OC)[C@@H](O)[C@H](C)O2)[C@H](C)[C@@H](O[C@@H]2O[C@H](C)C[C@H](N(C)C)[C@H]2O)[C@](C)(OC)C[C@@H](C)C(=O)[C@H](C)[C@@H](O)[C@]1(C)O [Clarithromycin]
MIC (B. catarrhalis ATCC 8176 [3]): 0.5 µg/mL (≈ 0.668 µM)
MIC (H. influenzae ATCC 49766 [4]): 128 µg/mL (≈ 171 µM)
MIC (H. influenzae ATCC 49247): 16 µg/mL (≈ 21.4 µM)
MBC (B. catarrhalis ATCC 8176 [5]): 1 µg/mL (≈ 1.34 µM)
MBC (H. influenzae ATCC 49766 [6]): > 128 µg/mL
MIC (E. faecalis ATCC 29212; [15]): 16 µg/mL (≈ 21.4 µM)
MIC (E. faecium VanA; [16]): > 128 µg/mL

O=C1OCCN1/N=C/c1ccc([N+](=O)[O-])o1 [Furazolidone]
MIC (S. typhimurium ATCC14028): 2 µg/mL (≈ 8.88 µM)
MIC [1, 9]: 2 to 4 µg/mL (≈ 8.88 to 17.8 µM)
MIC (S. aureus ATCC 29213; [10]): 4 to 16 µg/mL (≈ 17.8 to 71.1 µM)
MIC (A. baumannii ATCC 19606; Acinetobacter baumannii, ATCC19606, read-out: MIC): 32 µg/mL (≈ 142 µM)
MIC (E. faecium ATCC 35667; E. faecium ATCC 35667): >64 µg/mL
MIC (E. faecium ATCC 35667; [11]): > 128 µg/mL
MIC (E. coli ATCC 25922; [12]): 1 to 2 µg/mL (≈ 4.44 to 8.88 µM)
MIC [2, 13]: 2 µg/mL (≈ 8.88 µM)
MIC (S. aureus MRSA COL; [14]): 8 µg/mL (≈ 35.5 µM)
MIC (E. faecalis ATCC 29212; [15]): 8 to 16 µg/mL (≈ 35.5 to 71.1 µM)
MIC (E. faecium VanA; [16]): 64 µg/mL (≈ 284 µM)
MIC ([7]; Yersinia, ATCC23715, read-out: MIC): > 16 µg/mL

Cc1onc(-c2ccccc2)c1C(=O)N[C@@H]1C(=O)N2[C@@H]1SC(C)(C)[C@@H]2C(=O)O [Oxacillin]
MIC (MRSA strain Sa212c; [17]): 16 µg/mL (≈ 39.9 µM)
MIC (MRSA strain Sa248c; [17]): 512 µg/mL (≈ 1280 µM)
MIC (MRSA strain Sa224c; [17]): 32 to 64 µg/mL (≈ 79.7 to 159 µM)
MIC (MRSA strain Sa253c; [17]): 1020 µg/mL (≈ 2550 µM)
MIC (MRSA strain Sa220c; [17]): 8 to 16 µg/mL (≈ 19.9 to 39.9 µM)
MIC (MRSA strain Sa249c; [17]): 512 µg/mL (≈ 1280 µM)
MIC (MRSA strain Sa228c; [17]): 128 µg/mL (≈ 319 µM)
MIC (MRSA strain Sa211c; [17]): 16 to 32 µg/mL (≈ 39.9 to 79.7 µM)
MIC [1, 9]: 0.12 µg/mL (≈ 0.299 µM)
MIC (S. aureus ATCC 29213; [10]): 0.12 to 0.25 µg/mL (≈ 0.299 to 0.623 µM)
MIC (E. faecium ATCC 35667; [11]): 32 µg/mL (≈ 79.7 µM)
MIC [2, 13]: 1 µg/mL (≈ 2.49 µM)
MIC (S. aureus MRSA COL; Staphylococcus aureus, MRSA): > 128 µg/mL
MIC (S. aureus MRSA COL; [14]): 512 µg/mL (≈ 1280 µM)
MIC (E. faecalis ATCC 29212; [15]): 8 to 16 µg/mL (≈ 19.9 to 39.9 µM)

CN[C@H](CC(C)C)C(=O)N[C@H]1C(=O)N[C@@H](CC(N)=O)C(=O)N[C@H]2C(=O)N[C@H]3C(=O)N[C@H](C(=O)N[C@H](C(=O)O)c4cc(O)cc(O)c4-c4cc3ccc4O)[C@H](O)c3ccc(c(Cl)c3)Oc3cc2cc(c3O[C@@H]2O[C@H](CO)[C@@H](O)[C@H](O)[C@H]2O[C@H]2C[C@](C)(N)[C@H](O)[C@H](C)O2)Oc2ccc(cc2Cl)[C@H]1O [Vancomycin]
MIC ([1]; Staphylococcus epidermidis, ATCC12228): 1 to 2 µg/mL (≈ 0.69 to 1.38 µM)
MIC (S. aureus ATCC 29213; Staphylococcus aureus, ATCC29213): 0.5 to 2 µg/mL (≈ 0.345 to 1.38 µM)
MBC [8]: 1 µg/mL (≈ 0.69 µM)
MIC (E. faecium ATCC 35667; Enterococcus faecium, ATCC35667): 0.5 µg/mL (≈ 0.345 µM)
MIC ([2]; Staphylococcus saprophyticus, ATCC15305): 1 µg/mL (≈ 0.69 µM)
MIC (S. aureus MRSA COL; Staphylococcus aureus, MRSA): 1 to 2 µg/mL (≈ 0.69 to 1.38 µM)
MIC (E. faecalis ATCC 29212; Enterococcus faecalis, ATCC29212): 2 µg/mL (≈ 1.38 µM)
MIC (E. faecium VanA): > 128 µg/mL

Gentamicin
MIC (MRSA strain Sa212c): 0.25 µg/mL
MIC (MRSA strain Sa248c): >128 µg/mL
MIC (MRSA strain Sa224c): 0.25 µg/mL
MIC (MRSA strain Sa253c): >128 µg/mL
MIC (MRSA strain Sa234c): 1 µg/mL
MIC (MRSA strain Sa220c): 0.5 µg/mL
MIC (MRSA strain Sa249c): >128 µg/mL
MIC (MRSA strain Sa228c): 32 µg/mL
MIC (MRSA strain Sa211c): 1 µg/mL
MIC ([1]; S. epidermidis ATCC 12228): 0.06 to 0.25 µg/mL
MIC (S. aureus ATCC 29213; S. aureus ATCC 29213): 0.5 to 2 µg/mL
MIC (A. baumannii ATCC 19606): 32 µg/mL
MIC (E. faecium ATCC 35667; E. faecium ATCC 35667): 4 to 16 µg/mL
MIC (E. coli ATCC 25922; E. coli ATCC 25922 (Reference)): 0.5 to 2 µg/mL
MIC ([2]; S. saprophyticus ATCC 15305): 0.06 µg/mL
MIC (S. aureus MRSA COL; S. aureus MRSA COL): 0.5 µg/mL
MIC (E. faecalis ATCC 29212; E. faecalis ATCC 29212): 4 to 16 µg/mL
MIC [7]: 2 µg/mL
